For data set [1] the following is noted: n-octanol/water (1:1, v/v) ref Ordoudi et al. [24]; cited from earlier work.
Data set [2] has as its system S. epidermidis LMG 10474. Nature of the data set: Kirby-Bauer disc diffusion. It counts as cell-based, Staphylococcus epidermidis. Particulars: for zone of inhibition at 30 µg/disc: Staphylococcus epidermidis; for Inhibition zone: 53 μM/disc (30 μg/disc for dimeric A/S, 15 μg/disc for shikonin and alkannin). How it is done:
(§1) The antibacterial activity of neat and A/S mixture-loaded fibrous scaffolds was evaluated against the Gram-positive strains, Staphylococcus epidermidis LMG 10474 and S. aureus LMG 8224, implementing the Kirby-Bauer disc diffusion method. The bacteria were cultured onto nutrient agar plates (24 h at 37 °C) and then a dense bacterial suspension was made by transferring a small portion of staphylococci (10 μL) with an inoculating loop to 1 mL of sterile PBS. Next, 100 μL of this suspension were spread to Mueller-Hinton (MH) agar plates for conducting the test. UV-sterilized nanofibers with an average diameter of 8 mm were placed on the surface of inoculated MH plates. The plates were incubated for a period of 24 h at 37 °C. […] After 24 h, the antibacterial activity was evaluated by measuring the inhibition zone of the bacteria in millimeters.
(In agar diffusion tests the substance spreads into inoculated agar from a disc or well.)

The subject of data set [3] is S. aureus. Set-up: method as in PMID 760130, PMID 5066306. As to conditions: cited from earlier work.
For data set [4], the system named is S. aureus LMG 8224. Put plainly: Kirby-Bauer disc diffusion. Particulars: for zone of inhibition at 30 µg/disc: Staphylococcus aureus; for Inhibition zone: 53 μM/disc (30 μg/disc for dimeric A/S, 15 μg/disc for shikonin and alkannin). The data set is classed as cell-based, Staphylococcus aureus. As to the method:
as §1

Data set [5] deals with human skin fibroblasts. Set-up: method as in PMID 25234005. As to conditions: non-selective toxicity towards normal cell lines ref 42; cited from earlier work.
Data set [6] concerns granuloma tissue in Wistar rats. Set-up: method as in PMID 9586574. As to conditions: dose-dependent ref 41; cited from earlier work.
Data set [7] deals with Hs27 fibroblasts. Nature of the data set: SAR study of A/S derivatives on Hs27 metabolic activity (MTT). Particulars: for Effect on Hs27 cell viability: 24 h, MTT, vs untreated cells. How it is done: (§2) In this regard, each compound was first dissolved in DMSO and further diluted with DMEM up to the desired concentrations (< 0.1% v/v DMSO to avoid toxicity). […] After the respective incubation times, the metabolic activity was evaluated by MTT assay as described in the previous section. Untreated cells served as controls.

Experiment in data set [8]: as above
Particulars: human. As to the method: as §2

Data set [9] deals with keratinocytes. Set-up: method as in PMID 27725239. As to conditions: at 1.5 and 3 μΜ ref 40; cited from earlier work.
Data set [10] deals with human gingival fibroblasts. Set-up: method as in PMID 31574951. As to conditions: at 1 μΜ ref 39; cited from earlier work.
Data set [11] relates to S. epidermidis. Set-up: method as in PMID 760130, PMID 5066306. Particulars: cited from earlier work.
Setting [12] is: LMG10474, 30 μg/disc on 8 mm filter paper, 24 h, read-out: Zone of inhibition.
The mark [13] stands for this setting: LMG8224, 30 μg/disc on 8 mm filter paper, 24 h, read-out: Zone of inhibition.

The text below walks through data of article PMC8284004, “Electrospun wound dressings containing bioactive natural products: physico-chemical characterization and biological assessment” (Biomaterials Research, 2021).

Read-outs that look alike come from different tables or passages of the source. Marks after values point to notes of the source that are not given here. Bounds are passed on as bounds.

Regarding `CC(=O)O[C@H](CC=C(C)C)C1=CC(=O)c2c(O)ccc(O)c2C1=O` [Acetyl-shikonin, acetyl-shikonin], the “Log P” value in data set [1] is recorded as 0.66 ^c. The zone of inhibition at 30 µg/disc in data set [2] (LMG10474, 24 h) is 14.1 ± 1.25 mm; in data set [4] (LMG8224, 24 h), 11.9 ± 1.43 mm. Besides, in data set [3], the Growth inhibition result is listed as “inhibited the growth”.
On to `CC(C)=CC[C@H](O)C1=CC(=O)c2c(O)ccc(O)c2C1=O` [Alkannin, alkannin], for which the IC50 in data set [5] is 1500 ± 100 nM. For the same compound, the “Proliferation of granuloma tissue” value in data set [6] is “succeeded in accelerating (dose-dependently) the proliferation of granuloma tissue”. In addition, in data set [1], the “Log P” value was −0.27 ^c. In [2] (30 μg/disc on 8 mm filter paper, 24 h), this compound came in with a Zone of inhibition of 15.16 ± 0.66 mm. In addition, the figures for the Inhibition zone in [2] and in data set [4] were 10.69 ± 1.01 mm and 10.74 ± 0.74 mm, respectively. The zone of inhibition at 30 µg/disc is 15.2 mm in [2] (LMG10474, 24 h) and 12.7 ± 0.58 mm in data set [4] (LMG8224, 24 h). In [7] (1 μM), the “Effect on Hs27 cell viability” value is “significant decrease in cell number”. In addition, the viability at 3 days, 0.5 µM in data set [8] is above 110%.
For `CC(C)=CCCC1=CC(=O)c2c(O)ccc(O)c2C1=O` [Deoxy-shikonin, deoxy-shikonin], the “Log P” value in data set [1] was 1.08^c. For the same compound, in data set [9], the In vitro migration result is reported as “enhanced the in vitro migration”. Also, the zone of inhibition at 30 µg/disc came to 13.2 ± 0.22 mm in data set [2] (LMG10474, 24 h) and 12.4 ± 0.23 mm in [4] (LMG8224, 24 h).
`CC(C)=CCC(OC(=O)CC(C)C)C1=CC(=O)c2c(O)ccc(O)c2C1=O` (stereo not shown) [Isovaleryl-shikonin, isovaleryl-shikonin]: the zone of inhibition at 30 µg/disc was 11.1 ± 0.94 mm in [2] (setting [12]) and 9.13 ± 0.51 mm in [4] (setting [13]). Also, in [7] (day 3, isovaleryl-shikonin at 500 nM and 1 μM, dimeric A/S at 1 μM), the Proliferation rate ranking entry is recorded as “highest proliferation rates”.
As to `CC(C)=CC[C@@H](O)C1=CC(=O)c2c(O)ccc(O)c2C1=O` [Shikonin, shikonin], the half-maximal inhibitory concentration (IC50) in [5] was 1200 ± 100 nM. Also, in [10], the In vitro migration result was “enhanced the in vitro migration”. The “Proliferation of granuloma tissue” value in data set [6] was “succeeded in accelerating (dose-dependently) the proliferation of granuloma tissue”. In addition, the “Log P” value in [1] is given as −0.27 ^c. The Inhibition zone in data set [2] was found to be 10.77 ± 1.07 mm; in [4], 11.08 ± 0.26 mm. The zone of inhibition at 30 µg/disc in [2] (LMG10474, 24 h) was found to be 14.8 ± 2.12 mm; in data set [4] (LMG8224, 24 h) it was 12.3 ± 0.64 mm. In addition, the Growth inhibition entry in data set [3] was “inhibited the growth”. Besides, the “Effect on Hs27 cell viability” value in data set [7] (500 nM) and in data set [7] (1 μM) was “significant decrease in cell number” throughout.
As to `CC(C)=CCC(OC(=O)C=C(C)C)C1=CC(=O)c2c(O)ccc(O)c2C1=O` (stereo not drawn) [β,β-Dimethyl-acryl-shikonin, β,β-dimethyl-acryl-shikonin], in [1], the “Log P” value was 1.38 ^c. Moreover, the zone of inhibition at 30 µg/disc came out at 10.6 ± 0.57 mm in data set [2] (setting [12]) and 8.98 ± 0.17 mm in data set [4] (setting [13]). For the same compound, the Growth inhibition entry in data set [3] and in [11] was “effective” throughout.

Broadly, the zone of inhibition is the size of the clear area around the sample on an inoculated plate. For orientation: IC50 means the midpoint of a concentration-inhibition curve. The term viability denotes a read-out of living cells in per cent, often relative to untreated cells.
